Each structure is given as a SMILES string.

Data on two molecules can be found in US12194046B2 (priority 2021, dated 2025).

Data set [1] deals with human hepatocytes. How it is done:
Cryopreserved human hepatocytes were thawed and suspended into 50 ml of InVitro GRO HT-medium. The cells were centrifuged (50 g, 5 min) and resuspended into InVitro GRO KHB-medium (protein free). The cell density and viability were determined by trypan blue exclusion method.
Instrumentation: Waters Acquity UPLC+Waters TQ-S triple quadrupole MS; Column: Phenomenex Kinetex Biphenyl (2.1×100 mm, 1.8 μm) column with guard filter; Software: MassLynx 4.2.
The samples were analysed at 0, 30, 60, 90, and 120 minutes (with and without hepatocytes) by LC/MS/MS to monitor substrate depletion and formation of metabolites theophylline, theobromine and paraxanthine.

A short description of data set [2]: Pharmacokinetic study: plasma and brain concentrations after a single oral (gavage) dose in rats. It is filed as in vivo, Sprague-Dawley rats. Particulars: oral gavage 2 mg/kg. The source says: Serial blood samples were collected from three animals per group per timepoint prior to dosing and at 0.25, 0.5, 1, 2, 3 4, 6, 8, 10, 12, and 14-hours post dose. No more than three blood samples were collected from individual animals with the last sample being a terminal blood draw. Terminal brain samples were collected from three animals per group at 1, 4, 8, and 14-hours post dose. Blood samples were collected into tubes containing sodium heparin, and then processed for plasma and stored frozen until bioanalysis. Brain samples were collected following the terminal blood collection, rinsed with saline, and stored frozen until bioanalysis.
Non-compartmental pharmacokinetic parameter estimates were calculated from the mean plasma concentration-time data.
Animals were fasted overnight prior to dose administration. Water was provided ad libitum. Food was returned after the collection of the 4-hour samples.
Prior to dosing, the body weight of each animal was recorded. Doses (rounded to the nearest 0.001 mL) were calculated based on the pretreatment body weight (kg) and a dose volume of 10 mL/kg. […] Dosing syringes were weighed immediately prior to and immediately after dosing each animal, and the quantity of formulation administered to each animal was determined from the difference in syringe weights.
Immediately after the 1, 4, 8 and 14-hour blood collections, three animals/group were euthanized and the brain was dissected out of each rat. […] Brain weights were calculated for each sample. […]
The concentration-time data were analyzed to fit an extra-vascular (oral gavage) dosing plasma analysis model (200) using the software WinNonlin Phoenix version 6.3 (Pharsight).
Areas-under-the-plasma concentration-time curves (AUC) were estimated using the linear trapezoidal rule. […] Apparent T1/2 was calculated using the slope of the log-linear terminal phase of the concentration-time curve, defined by a minimum of three plasma concentration-time points. Half-lives are reported if the correlation for the regression line, as measured by r squared, is ≥0.9, when rounded.

The nature of data set [3]: clinical. The settings on record: both, human, in vivo, po.

As for `Cn1c(=O)c2c(ncn2C)n(C)c1=O` [caffeine, reference compound], in data set [1], the “formation of metabolite theobromine” value is recorded as “not detected” and the “substrate depletion (disappearance)” value is reported as “No clear disappearance”. The “Cmax, corr (molecular weight corrected)” value in data set [2] (rat plasma, caffeine values multiplied by 0.956) is 2.486 µg/mL. The half-life in data set [3] (50 mg) was 5.41 h. In data set [3] (52.3 mg), this molecule returned an area under the curve AUC(0-t) of 47.2 µM·h, a maximum concentration (Cmax) of 5.32 µM and an MRT of 7.3 h. The molecule further showed a half-life in data set [3] (250 mg) of 4.25 h. In data set [3] (261.7 mg), the area under the curve AUC(0-t) stood at 206 µM·h, the peak concentration (Cmax) is 25.1 µM and the MRT worked out at 4.3 h.

Take `[2H]C([2H])([2H])n1c(=O)c2c(ncn2C([2H])([2H])[2H])n(C([2H])([2H])[2H])c1=O` [d9-caffeine, 1,3,7-tri-trideuteromethylxanthine]: in data set [1], the “formation of metabolite theobromine” value was “not detected” and the “substrate depletion (disappearance)” value is “No clear disappearance”. For the same molecule, in data set [2] (rat brain, molecular weight corrected), the “total brain exposure (AUClast,corr) higher than caffeine” value is reported as “approximately 52%”. Moreover, the “total systemic exposure (AUCinf) higher than caffeine” value in data set [2] (rat plasma, molecular weight corrected) is given as “approximately 77%”. In addition, the half-life in data set [3] (50 mg) was 32.2 h. In data set [3] (52.3 mg), the exposure AUC(0-t) turned out to be 192 µM·h, the concentration peaked (Cmax) at 6.62 µM and the mean residence time (MRT) was found to be 19.7 h. The half-life in data set [3] (250 mg) is 25.6 h. In data set [3] (261.7 mg), this molecule had an AUC(0-t) of 972 µM·h, a maximum concentration (Cmax) of 36.5 µM and a mean residence time MRT of 18.9 h.

As a reminder, the half-life is how long it takes for the measured level to halve. A higher half-life goes with slow decline. A word on the AUC(0-t): it is exposure summed from dosing to a finite time, without extrapolation to infinity. By Cmax is commonly meant the highest concentration seen after dosing. A word on the MRT: it is the average time that molecules of a dose stay in the body.
